Data from patent publication US11845807B2, “Method and carrier complexes for delivering molecules to cells” (priority 2003, dated 2023).
Entries after “also recorded” stand apart in the source; their conditions may differ. Square brackets hold non-standard residues; d marks the D form. Peptide text beside a SMILES is read from it. Dmt = Cc1cc(O)cc(C)c1C[C@H](N)C(=O)O

How the values were obtained:
cells in culture = conditions: similar studies, cell line not stated
Caco-2 cells [1] = assay: Assay for peptide uptake in Caco-2 cells; format: cell-based
From the text: Assay for Peptide Uptake.

Caco-2 cells [2] = assay: Assay for peptide efflux from Caco-2 cells; format: cell-based
Protocol: Assay for Peptide Efflux from CaCo-2 Cells. […] Cells were then washed four times with 1 ml of ice-cold incubation solution to terminate uptake and then incubated with 0.5 ml of MEM for 1 h at either 37 or 4° C. to measure the efflux of peptide from cells to the incubation medium. The amount of radioactivity was determined in cell lysates and in the incubation medium.

[3] = tested on: Caco-2, SH-SY5Y, HEK293, and CRFK cells; conditions: 250 nM, 1 h at 37° C., acid-wash
Protocol: Assay for Peptide Uptake. […] Monolayers of cells were grown on 12-well plates (5×10^5 cells/well) coated with collagen for 3 days. […] At the end of the incubation period, cells were washed four times with HBSS, and 0.2 ml of 0.1 N NaOH with 1% SDS was added to each well. The cell contents were then transferred to scintillation vials and radioactivity was counted. […] Before cell lysis, cells were incubated. with 0.2 ml of 0.2 M acetic acid/0.05 M NaCl for 5 min on ice.
An acid-wash step was included to distinguish internalized radioactivity (acid-resistant) from surface-bound radioactivity (acid-sensitive).

N2A cells = assay: Cell viability, MTT assay, N2A cells; format: cell-based; conditions: 1 nM to 10 μM, 24 h
[4] = tested on: cell surface receptors, membranes prepared from Caco-2 cells; assay: Radioligand binding assay using Caco-2 cell membranes; conditions: 15-960 pM radioligand, 60 min at 25° C.; listed as [^3H][Dmt^1]DALDA
Protocol: Radioligand Binding Assay Using Cell Membranes. […] After 4 days of culture, cells were washed two times with PBS buffer and then scraped off. Cells were centrifuged at 500 g for 5 min and the pellet stored at −80° C. Cells were homogenized in ice-cold 50 mM Tris-HCl buffer (5 μg/ml leupeptin, 2 μg/ml chymostatin, 10 μg/ml bestatin, and 1 mM EGTA, pH 7.4). The homogenate was centrifuged at 36,000 g for 20 min. The pellets were resuspended with 50 mM Tris-HCl buffer. […] Free radioligand was separated from bound radioligand by rapid filtration through GF/B filters (Whatman, Maidstone, UK) with a cell harvester (Brandel Inc., Gaithersburg, Md.). Filters were washed three times with 10 ml of Tris buffer, and radioactivity was determined by liquid scintillation counting. Binding affinities (Kd) and receptor number (Bmax) were determined using nonlinear regression (GraphPad Software, San Diego, Calif.).

peptidase = conditions: Szeto et al., J. Pharmacol. Exp. Ther., 2001; cited from earlier work
Huh7 cells [5] = assay: GFP uptake into cells on co-incubation with peptide or peptide-SMCC conjugate; format: cell-based; conditions: 3 μg GFP + 40 μl peptide, 60 min at 37° C., then 24 hours; versus GFP alone
Protocol: Carrier complex formation by physical mixing of protein and [Dmt1]DALDA-SMCC conjugate. The [Dmt^1]DALDA-SMCC conjugate was prepared as described above. The protein molecules (i.e. green fluorescent protein, GFP) were mixed with the [Dmt^1]DALDA-SMCC conjugate for 15 min at room temperature before use in cellular uptake studies.
Assay for protein uptake into cells when co-incubated with [Dmt1]DALDA-SMCC conjugate. […] 2 ml of cell medium was then added to cells which were incubated for an additional 24 hours in the cell culture incubator. After incubation, cells were washed four times in cell medium and GFP retained in living cells was visualized, by confocal laser scanning microscopy. Excitation was performed at 340 nm and emission was measured at 520 nm.
2 ml of cell medium was then added to cells and incubated for an additional 24 hours in cell culture incubator. After incubation, cells were washed four times in cell medium and GFP retained in living cells was visualized by confocal laser scanning microscopy. Excitation was performed at […] and emission was measured at […].

SH-SY5Y cells = assay: Cell viability, MTT assay, SH-SY5Y cells; format: cell-based; conditions: 1 nM to 10 μM, 24 h
Caco-2 cells [6] = assay: Cell viability, MTT assay, Caco-2 cells; format: cell-based; conditions: 1 nM to 10 μM, 24 h
[7] = Peptide translocation across Caco-2 monolayers (Transwell, apical-to-basolateral); format: in vitro ADME; conditions: human, Caco-2; apical-to-basolateral; read-out: apparent permeability coefficient
Protocol: (§1) Assay for Peptide Translocation across Caco-2 Monolayers. Monolayers of Caco-2 cells were prepared as described previously (Irie et al., J. Pharmacol. Exp. Ther. 2001, 298: 711-717), Caco-2 cells (2×10^5) were seeded on microporous membrane filters (24 mm, […]) inside Transwell cell culture chambers (Corning Glassworks, Corning, N.Y.). Each Transwell chamber was filled with 1.5 ml of medium in the apical compartment and 2.5 ml in the basolateral compartment. The cell monolayers were given fresh medium every 1 to 2 days and were used on day 28 for transport experiments.
(§2) The apparent permeability coefficient was calculated according to the following equation: Papp=X/(t·A·Co), where X/t is the rate of uptake in the receiver compartment, A is the diffusion area (4.72 cm^2), and Co is the initial concentration in the donor compartment.

Caco-2 monolayer = assay: as above; format: in vitro ADME; conditions: 60 min
Protocol: as §1, §2

Huh7 cells [8] = assay: RNA uptake into cells when mixed with peptide-SMCC conjugate; format: cell-based; conditions: for increase of uptake of RNA oligo on co-incubation: 11-base RNA oligo
Protocol: Carrier complex formation by physical mixing of RNA and [Dmt^1]DALDA-SMCC conjugate. The [Dmt^1]DALDA-SMCC conjugate was prepared as described above. The RNA molecules were mixed with the [Dmt^1]DALDA-SMCC conjugate in PBS for 15 min at room temperature before use in cellular uptake studies.
Assay for uptake of RNA uptake into cells when mixed with [Dmt1]DALDA-cross-linker conjugate. Huh7 cells (1×10^6 cells/well) were washed with DMEM and then incubated with 1.0 ml DMEM containing [^32P]RNA oligo alone or with 40 μl [Dmt^1]DALDA-SMCC conjugate, for 60 min at 37° C. or 4° C. Cells were then washed four times in DMEM and one time in sodium acetate solution to reduce nonspecific binding before incubated in lysis buffer for 30 min and radioactivity determined in the cell lysate.
The carrier complex was formed by physical mixing of RNA and [Dmt^1]DALDA-SMCC conjugate. […] A single strand 11-mer [^32P]RNA oligo was mixed with the [Dmt^1]DALDA-SMCC conjugate for 15 min at room temperature before use in cellular uptake studies.
Huh7 cells (1×10^6 cells/well) were washed with DMEM and then incubated with 1.0 ml DMEM containing the [^32P]RNA oligo (100,000 cpm) alone or with […] [Dmt^1]DALDA-SMCC conjugate at 37° C. or 4° C. Cells were then washed four times in DMEM and one time in sodium acetate solution to remove nonspecific binding before incubated in lysis buffer for 30 min and retained radioactivity determined.

Huh7 cells [9] = assay: Cell viability by trypan blue uptake; format: cell-based; conditions: 50 μl of 1 mM conjugate in 1 ml medium, 24 hours at 37° C.
Protocol: Trypan blue is only taken by cells with increased membrane permeability. Huh7 cells (1×10^6) were washed three times in DMEM, and 1 ml of fresh medium, or media containing 50 μl of 1 mM [Dmt^1]DALDA-SMCC conjugate, [D-Arg-Dmt-Lys-Phe-NH2]-SMCC conjugate, or [Phe^1]DALDA-SMCC conjugate, and incubated at 37° C. for 24 hours at 5% CO2. Cells were then washed three times with DMEM, and 1 ml of 0.4% trypan blue was added to the cells for 2 minutes. Excessive dye was removed by washing cells in cell medium and the cells were examined by light microscopy.

Huh7 cells [10] = assay: Assay of apoptosis (Hoechst dye); format: cell-based; conditions: 50 μl of 1 mM conjugate, 24 hours at 37° C., versus PBS control
Protocol: Assay of apoptosis. Apoptosis was determined with the use of Hoechst dye (Molecular Probes, Eugene, Oreg.) for staining apoptotic nuclei. The Hoechst dye was loaded to cell cultures and incubated for 15 min. Excessive Hoechst dye was removed by washing cells with cell medium. (free of pH indicator) the cells examined using fluorescent microscopy (excitation at 350 nm and emission at 461 nm).
After the incubation, 1 ml of Hoechst dye (Molecular Probes, Eugene, Oreg.) for staining apoptotic nuclei were added to cells and incubated for additional 15 min. Excessive Hoechst dye was removed by washing cells with cell medium (free of pH indicator) and cells treated with [Dmt^1]DALDA-SMCC conjugate were compared with control cells using fluorescent microscopy (excitation at 350 nm and emission at […]). Apoptosis is indicated by concentration of fluorescence in the nuclei.

Cc1cc(O)cc(C)c1C[C@H](NC(=O)[C@H](N)CCCNC(=N)N)C(=O)N[C@@H](CCCCN)C(=O)N[C@@H](Cc1ccccc1)C(N)=O [[D-Arg-Dmt-Lys-Phe-NH2], D-Arg-2′6′Dmt-Lys-Phe-NH2] (H-[dR][Dmt]KF-NH2)
toxicity to cells / cell viability (cells in culture): no effect on cell viability

Cc1cc(O)cc(C)c1C[C@H](N)C(=O)N[C@H](CCCNC(=N)N)C(=O)N[C@@H](Cc1ccccc1)C(=O)N[C@@H](CCCCN)C(N)=O [[Dmt^1]DALDA, 2′,6-Dmt-D-Arg-Phe-Lys-NH2]
concentration dependence of uptake (Caco-2 cells [1]; 1 μM-3 mM, 1 h at 37° C.): concentration-dependent over a wide range of concentrations
effect of verapamil (P-glycoprotein inhibitor) on cellular uptake (Caco-2 cells [1]; 100 μM verapamil): no effect
increase of uptake by DEPC (Caco-2 cells [1]; 0.2 mM DEPC): 34 fold
effect of 4° C. on uptake (Caco-2 cells [1]; 4° C. versus 37° C.): slower compared with 37 °C
uptake at 4° C. by 45 min (Caco-2 cells [1]; 4° C., 45 min, compared with 37° C.): 76.5%
uptake at 4° C. by 1 h (Caco-2 cells [1]; 4° C., 1 h, compared with 37° C.): 86,3%
time at which peptide was first observed in cell lysate (Caco-2 cells [1]; 37° C., 250 nM): 5 min
fraction resistant to acid-wash (presumed inside the cell) (Caco-2 cells [1]; 1 h at 37° C., acid-wash before lysis): 80.8%
total amount recovered in cell lysate, of the total drug (Caco-2 cells [1]; after 1-h incubation, 37° C.): about 1%
effect of pH on uptake (Caco-2 cells [1]; pH varied from 4.0 to 7.4, 1 h at 37° C.): unchanged
effect of verapamil (P-glycoprotein inhibitor) on efflux (Caco-2 cells [2]; 100 μM verapamil): not affected
effect of DEPC on efflux (Caco-2 cells [2]; 0.2 mM DEPC, 10 min at 25° C. before loading): decreased
effect of temperature (4° C.) on efflux (Caco-2 cells [2]; 4° C. versus 37° C.): temperature had a significant effect
peptide effluxed into medium (Caco-2 cells [2]; preloaded 1 h, 1 h efflux at 37° C.): 80%
internalization (acid-resistant radioactivity) in different cell lines [3]: taken up extensively in all cell types
cell viability (MTT assay) (N2A cells): no effect on cell viability; also recorded: not toxic to cells in culture
specific binding to Caco-2 membranes [4]: No high-affinity specific binding was observed
resistance against peptidase degradation (peptidase): resistant against peptidase degradation
uptake of GFP into cells (green fluorescence) (Huh7 cells [5]): moderately increased green fluorescence within the cell cytoplasm
cell viability (MTT assay) (SH-SY5Y cells): no effect on cell viability
cell viability (MTT assay) (Caco-2 cells [6]): no effect on cell viability
Papp A→B at 0.2 μM [7]: 12.4 ×10⁻⁶ cm/s
percentage translocated from the apical to the basolateral side (Caco-2 monolayer): 10.4%

Cc1cc(O)cc(C)c1C[C@H](N)C(=O)N[C@H](CCCNC(=N)N)C(=O)N[C@@H](Cc1ccccc1)C(=O)N[C@@H](CCCCNC(=O)C1CCC(CN2C(=O)C=CC2=O)CC1)C(N)=O (stereo partly drawn) [[Dmt^1]DALDA-SMCC conjugate]
increase of uptake of RNA oligo on co-incubation (Huh7 cells [8]; 15 min at 37° C.): 10 fold
increase of uptake of RNA oligo on co-incubation (Huh7 cells [8]; 60 min at 37° C.): ~20 fold
increase of uptake of 11-mer RNA on co-incubation (Huh7 cells [8]; FIG. 13 experiment, 60 min at 37° C.): 22 fold
uptake of GFP into cells (green fluorescence) (Huh7 cells [5]): even greater uptake of GFP; also recorded: enhances uptake of green fluorescent protein
trypan blue uptake (cell viability) (Huh7 cells [9]): No increase in trypan blue uptake
apoptosis (Hoechst staining of nuclei) (Huh7 cells [10]): did not induce apoptosis; also recorded: does not induce apoptosis
